Laboratory results from patent publication US20250197457A1, “CHIMERIC IGG-FC-BINDING LIGAND POLYPEPTIDE AND USES THEREOF FOR IGG AFFINITY PURIFICATION” (Roche Diagnostics Operations, Inc., priority 2021, published 2025).

Key:
human IgG [1] = details: cited from earlier work
rabbit IgG = target: T1, rabbit IgG (Oryctolagus cuniculus, UniProt P01870); details: Gong et al.; cited from earlier work
T1 construct: purchased Sigma-Aldrich

IgG-Fc-region = details: DeLano et al. 2000; cited from earlier work
human IgG [2] = assay: SPR interaction assay (Biacore), scaffolds immobilised, human IgG as analyte; format: binding; details: hIgG at 25° C.
Procedure: Surface plasmon resonance (SPR) The affinities and binding kinetics of the generated TtSlyD-Fc-III-4C mutants were evaluated by SPR using a Biacore biosensensor system. The Biacore system enables a real-time monitoring of intermolecular interactions between the ligand, immobilised on a sensor chip gold-surface, and the analyte which is free in solution and passes over the ligand (Healthcare, G., Biacore™ Assay Handbook 29-0194-00 Edition AA). Interaction of the binding partners leads to SPR signals (responses), measured in resonance units (RU) and illustrated as plot against time (sensorgram).
Regarding the procedure, in brief, the analyte is injected on the chip, interacting with the immobilised ligand. The change in concentration of molecules at the chip surface leads to a change in the refractive index, monitored as response unit (RU). Dissociation of analyte is triggered by continues buffer flow, followed by complete removal (chip regeneration) and starting of a new analysis cycle. […]
Interaction kinetics are examined by monitoring different analyte concentrations over time. Kinetic parameters, such as association (ka) and dissociation rate constants (kd) are evaluated in relation to a mathematical model. […]

T1 sequence (P01870 whole entry): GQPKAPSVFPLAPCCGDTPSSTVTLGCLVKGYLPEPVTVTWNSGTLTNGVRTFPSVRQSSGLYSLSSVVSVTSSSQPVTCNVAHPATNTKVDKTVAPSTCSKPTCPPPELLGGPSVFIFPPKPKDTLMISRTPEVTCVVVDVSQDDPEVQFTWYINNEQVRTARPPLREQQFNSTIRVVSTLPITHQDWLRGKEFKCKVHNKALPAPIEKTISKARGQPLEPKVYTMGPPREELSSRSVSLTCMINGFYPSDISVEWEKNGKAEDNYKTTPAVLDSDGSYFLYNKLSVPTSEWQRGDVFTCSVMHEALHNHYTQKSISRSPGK

CDCAWHLGELVWCTC [Fc-III-4C]
higher binding affinity to human IgG compared to the original Fc-III (human IgG [1]; SPR): 30 fold | Kd (human IgG [1]; human IgG, Gong et al. 2016): 2.45 nM | Kd (rabbit IgG): 5.67 nM

DCAWHLGELVWCT [Fc-III]
binding affinity relative to Protein A (IgG-Fc-region): only about two fold weaker

B1: TtSlyD-Fc-III-2C Hit No. 4: SlyD chimera whose IF domain is replaced by Fc-III-XC peptide EDCAWHLGELVWCTE, SEQ ID NO: 16 (protein)
chain: MKVGQDKVVTIRYTLQVEGEVLDQGELSYLHGHRLIPGLEEALEGREEGEAFQAHVPAEKAYEDCAWHLGELVWCTEGKDLDFQVEVVKVREATPEELLHGHA
modifications: left off: small tags and cut ends
binding affinity KA (human IgG [2]): 1.09e+08 M⁻¹ | t/2 diss (human IgG [2]): 36 min
